In ChEMBL document CHEMBL1201862, “PubChem BioAssay data set” (2004):
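Briefly, cells in 96-well plates were exposed to five compound concentrations for 48 h, and endpoints were estimated by linear interpolation. GI50 marks 50% less growth.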 Activity calls are given as the source filed them. No stated cut-off is given here; in the data, active = GI50 up to about 1.1 µM and inactive = higher.

Columns and labels:
Experiment in all cases: inhibition of tumour cell growth, NCI panel, 48 h
CAKI-1 = system: CAKI-1
CCRF-CEM = system: CCRF-CEM
EKVX = system: EKVX
HCT-116 = system: HCT-116
MCF7 = system: MCF7
MDA-MB-231 = system: MDA-MB-231
NCI-H226 = system: NCI-H226
NCI-H460 = system: NCI-H460
NCI/ADR-RES = system: NCI/ADR-RES
RXF 393 = system: RXF 393
SF-268 = system: SF-268
SF-295 = system: SF-295
SK-MEL-2 = system: SK-MEL-2
SNB-75 = system: SNB-75
SR = system: SR
SW-620 = system: SW-620
U-251 = system: U-251

Compound	GI50 (CAKI-1)	GI50 (CCRF-CEM)	GI50 (EKVX)	GI50 (HCT-116)	GI50 (MCF7)	GI50 (MDA-MB-231)	GI50 (NCI-H226)	GI50 (NCI-H460)	GI50 (NCI/ADR-RES)	GI50 (RXF 393)	GI50 (SF-268)	GI50 (SF-295)	GI50 (SK-MEL-2)	GI50 (SNB-75)	GI50 (SR)	GI50 (SW-620)	GI50 (U-251)
COc1ccc(CSCc2cc(OC)c(OC)c(OC)c2)cc1	> 100 µM (inactive)	> 100 µM (inactive)	> 31.6 µM (inactive)	> 31.6 µM (inactive)	> 56 µM (inactive)	> 100 µM (inactive)	> 100 µM (inactive)	> 100 µM (inactive)	> 31.6 µM (inactive)	> 82 µM (inactive)	> 100 µM (inactive)	> 52.4 µM (inactive)	> 100 µM (inactive)	37.5 µM (inactive)	> 100 µM (inactive)	> 83.2 µM (inactive)	> 100 µM (inactive)
COC(=O)[C@H]1CO[C@@H](C(C)(C)C)N1C(=O)N1C=CC(=O)C[C@@H]1C	> 100 µM (inactive)	> 100 µM (inactive)	> 100 µM (inactive)	> 100 µM (inactive)	> 100 µM (inactive)	> 100 µM (inactive)	> 100 µM (inactive)	–	> 100 µM (inactive)	> 100 µM (inactive)	> 100 µM (inactive)	> 100 µM (inactive)	> 100 µM (inactive)	> 100 µM (inactive)	> 100 µM (inactive)	> 100 µM (inactive)	> 100 µM (inactive)
Cc1c(C)c(C)c(CC2(C)CSC2)c(CC2(C)CSC2)c1C	–	> 100 µM (inactive)	> 100 µM (inactive)	> 100 µM (inactive)	> 100 µM (inactive)	> 100 µM (inactive)	> 100 µM (inactive)	> 100 µM (inactive)	> 100 µM (inactive)	> 100 µM (inactive)	> 100 µM (inactive)	> 100 µM (inactive)	> 100 µM (inactive)	> 100 µM (inactive)	> 100 µM (inactive)	> 100 µM (inactive)	> 100 µM (inactive)
O=C1NC(O)CCN1C1CC(O)C(CO)O1 (centres undefined)	> 100 µM (inactive)	> 100 µM (inactive)	> 100 µM (inactive)	> 100 µM (inactive)	> 100 µM (inactive)	> 100 µM (inactive)	> 100 µM (inactive)	> 100 µM (inactive)	> 100 µM (inactive)	> 100 µM (inactive)	> 100 µM (inactive)	> 100 µM (inactive)	> 100 µM (inactive)	–	> 100 µM (inactive)	> 100 µM (inactive)	> 100 µM (inactive)
O=C1/C(=C/c2cccc3ccccc23)CCc2ccc([N+](=O)[O-])cc21	24.8 µM (inactive)	60.8 µM (inactive)	47 µM (inactive)	14.5 µM (inactive)	4.8 µM (inactive)	28.5 µM (inactive)	27.6 µM (inactive)	29 µM (inactive)	16.3 µM (inactive)	23.4 µM (inactive)	33.7 µM (inactive)	11.9 µM (inactive)	–	19.2 µM (inactive)	> 10 µM (inactive)	9.66 µM (inactive)	14.1 µM (inactive)
COC1CC(N)C(O)C(C)O1 (centres undefined)	> 100 µM (inactive)	> 100 µM (inactive)	> 100 µM (inactive)	> 100 µM (inactive)	> 100 µM (inactive)	> 100 µM (inactive)	> 100 µM (inactive)	> 100 µM (inactive)	> 100 µM (inactive)	> 100 µM (inactive)	> 100 µM (inactive)	> 100 µM (inactive)	–	> 100 µM (inactive)	> 100 µM (inactive)	> 100 µM (inactive)	> 100 µM (inactive)
C=C1CC2(C)CCC(OC(=O)C3(C)OC3C)C(C)(OC(C)=O)C2CC1=C(C)C (centres undefined)	> 10 µM (inactive)	96.6 µM (inactive)	> 100 µM (inactive)	> 100 µM (inactive)	> 100 µM (inactive)	> 100 µM (inactive)	–	> 100 µM (inactive)	> 100 µM (inactive)	> 100 µM (inactive)	> 100 µM (inactive)	> 100 µM (inactive)	> 100 µM (inactive)	> 100 µM (inactive)	> 100 µM (inactive)	> 100 µM (inactive)	> 100 µM (inactive)
C=CCSC1=N/C(=C\c2ccc(Cl)cc2)C(=O)N1CC=C	37 µM (inactive)	21.4 µM (inactive)	17.1 µM (inactive)	25.1 µM (inactive)	18.9 µM (inactive)	30.2 µM (inactive)	–	43.7 µM (inactive)	34 µM (inactive)	19.8 µM (inactive)	40.6 µM (inactive)	34.8 µM (inactive)	27.7 µM (inactive)	–	27.4 µM (inactive)	30.3 µM (inactive)	22 µM (inactive)
COc1ccc2c(c1)-c1c(c3ccccc3n1CCN1CCOCC1)CC2	17.5 µM (inactive)	22.4 µM (inactive)	16.4 µM (inactive)	22.4 µM (inactive)	32.3 µM (inactive)	18.9 µM (inactive)	11.7 µM (inactive)	16.8 µM (inactive)	11.7 µM (inactive)	–	19 µM (inactive)	16 µM (inactive)	11 µM (inactive)	10.8 µM (inactive)	19.1 µM (inactive)	32.1 µM (inactive)	26 µM (inactive)
OCC1CCCC1O (centres undefined)	> 100 µM (inactive)	> 100 µM (inactive)	–	> 100 µM (inactive)	> 100 µM (inactive)	> 100 µM (inactive)	> 100 µM (inactive)	> 100 µM (inactive)	> 100 µM (inactive)	> 100 µM (inactive)	> 100 µM (inactive)	> 100 µM (inactive)	> 100 µM (inactive)	> 100 µM (inactive)	> 100 µM (inactive)	> 100 µM (inactive)	> 100 µM (inactive)
O=S(=O)(CCn1c(Sc2ccccc2)c(Sc2ccccc2)c2ccccc21)c1ccccc1	55.8 µM (inactive)	> 100 µM (inactive)	> 100 µM (inactive)	> 100 µM (inactive)	> 100 µM (inactive)	> 100 µM (inactive)	> 100 µM (inactive)	> 100 µM (inactive)	> 100 µM (inactive)	–	> 100 µM (inactive)	> 100 µM (inactive)	> 100 µM (inactive)	> 100 µM (inactive)	> 100 µM (inactive)	> 100 µM (inactive)	> 100 µM (inactive)
Cc1ccc(S(=O)(=O)NC(=O)Nc2cccc(S(N)(=O)=O)c2)cc1	> 100 µM (inactive)	–	> 100 µM (inactive)	> 100 µM (inactive)	> 100 µM (inactive)	> 100 µM (inactive)	> 100 µM (inactive)	> 100 µM (inactive)	> 100 µM (inactive)	> 100 µM (inactive)	> 100 µM (inactive)	> 100 µM (inactive)	> 100 µM (inactive)	> 100 µM (inactive)	> 100 µM (inactive)	> 100 µM (inactive)	> 100 µM (inactive)
Cc1nnc(N)nc1/C=C\c1ccc(Cl)cc1Cl	> 100 µM (inactive)	27.5 µM (inactive)	39.5 µM (inactive)	26.9 µM (inactive)	32.8 µM (inactive)	87.5 µM (inactive)	17.3 µM (inactive)	19.9 µM (inactive)	> 100 µM (inactive)	39.7 µM (inactive)	34.8 µM (inactive)	23.4 µM (inactive)	17 µM (inactive)	–	46.6 µM (inactive)	22 µM (inactive)	34.8 µM (inactive)
COc1cc(C2SC(C)C(=O)N2c2ccc(-c3csc(NS(=O)(=O)c4ccc(Cl)c(OC)c4)n3)cc2)ccc1O (centres undefined)	> 100 µM (inactive)	14.6 µM (inactive)	–	31.8 µM (inactive)	38.4 µM (inactive)	> 100 µM (inactive)	> 100 µM (inactive)	> 100 µM (inactive)	> 100 µM (inactive)	> 100 µM (inactive)	29.4 µM (inactive)	> 100 µM (inactive)	48.5 µM (inactive)	19.7 µM (inactive)	23.9 µM (inactive)	31.8 µM (inactive)	46.5 µM (inactive)
CNc1ccc(C(=O)CC(O)CCC(C)C2OC(=O)CC(O)CC(=O)CC(O)CC(O)CC(O)CC(O)CC3(O)CC(O)C(C(=O)N4CCOCC4)C(CC(OC4OC(C)C(O)C(N)C4O)\C=C/C=C\C=C/C=C/C=C/C=C\C=C/C2C)O3)cc1 (centres undefined)	0.227 µM (active)	–	–	0.504 µM (active)	0.285 µM (active)	0.236 µM (active)	0.277 µM (active)	0.27 µM (active)	0.43 µM (active)	0.318 µM (active)	0.218 µM (active)	0.446 µM (active)	0.421 µM (active)	0.409 µM (active)	0.296 µM (active)	0.475 µM (active)	0.243 µM (active)
Cc1ccc2c(c1C)-c1c(ccc(C)c1C)C(=O)C2=O	0.662 µM (active)	0.238 µM (active)	2.13 µM (inactive)	0.361 µM (active)	0.21 µM (active)	1.62 µM (inactive)	1.66 µM (inactive)	0.966 µM (active)	0.151 µM (active)	0.337 µM (active)	0.385 µM (active)	0.59 µM (active)	1.19 µM (inactive)	–	0.107 µM (active)	0.378 µM (active)	0.432 µM (active)
CCCOC(=O)NC(C)C(=O)NC(CCC(=O)NC(CCCC(N)C(=O)O)C(=O)NC(C)C(=O)O)C(=O)O (centres undefined)	19.9 µM (inactive)	19.2 µM (inactive)	49.3 µM (inactive)	34.4 µM (inactive)	39.2 µM (inactive)	19.3 µM (inactive)	–	38.7 µM (inactive)	19.2 µM (inactive)	–	16.7 µM (inactive)	16.6 µM (inactive)	54.2 µM (inactive)	–	15.6 µM (inactive)	23 µM (inactive)	25.5 µM (inactive)
